Data: patent US9518061B2, “Substituted pyrazolylpyrazole derivative and use of same as herbicide” (KYOYU AGRI CO., LTD., priority 2013, dated 2016)

Tests used:
[1] = test system: Echinochloa crus-galli; assay: Paddy herbicidal activity test; format: in vivo; settings: irrigated paddy pot, treated at 3.5 leaf stage of Echinochloa crus-galli, 30 days
Experimental: (§1) 1. Paddy Herbicidal Activity Test
(§2) Rice paddy soil was filled into a 1/10000 are pot followed by the addition of suitable amounts of water and chemical fertilizer, kneading, seeding with Echinochloa crus-galli, Monochoria vaginalis and Scirpus juncoides and maintaining in an irrigated state at a water depth of 3 cm.
(§3) Wettable powder of Target Compound (I) shown in Table 1 prepared in compliance with the preparation examples were diluted with a suitable amount of water, rice plants in the 2.0 leaf stage were transplanted during 3.5 leaf stage of Echinochloa crus-galli, and treated by dropping in chemical in the prescribed amount per are using a pipette.
(§4) After treating for 30 days in a glass greenhouse at an average atmospheric temperature of 30° C., the herbicidal efficacy thereof was investigated.
(§5) Evaluation of herbicidal efficacy was carried out by comparing growth inhibition rate (%) with an untreated group, while evaluation of phytotoxicity was carried out by comparing growth inhibition rate (%) with the state of a complete eradication group, and were evaluated at 11 levels indicated below.

[2] = test system: Monochoria vaginalis; assay: Paddy herbicidal activity test; format: in vivo; settings: irrigated paddy pot, 30 days
Experimental: as §1, §2, §3, §4, §5

[3] = test system: Scirpus juncoides; assay: Paddy herbicidal activity test; format: in vivo; settings: irrigated paddy pot, 30 days
Experimental: as §1, §2, §3, §4, §5

[4] = test system: Rice plants; assay: Paddy herbicidal activity test, phytotoxicity to transplanted rice; format: in vivo; settings: rice transplanted in 2.0 leaf stage, 30 days
Experimental: as §1, §2, §3, §4, §5

[5] = test system: Amaranthus retroflexus; assay: Farming soil treatment test; format: in vivo; settings: soil surface spray prior to weed growth, 30 days
Experimental: (§6) 2. Farming Soil Treatment Test
(§7) Field soil was filled into a 1/6000 are pot followed by seeding with Digitaria ciliaris, Chenopodium album and Amaranthus retroflexus and covering with soil.
(§8) Wettable powder of compounds of formula (D shown in Table 1 prepared in compliance with the preparation examples were diluted with water to the prescribed amount of chemical and uniformly sprayed onto each soil surface layer using 10 liters of sprayed water per are prior to weed growth following seeding.
as §4
(§9) Evaluation of herbicidal efficacy was carried out in the same manner as the above-mentioned Test Example 1.

[6] = test system: Chenopodium album; assay: Farming soil treatment test; format: in vivo; settings: soil surface spray prior to weed growth, 30 days
Experimental: as §6, §7, §8, §4, §9

[7] = test system: Digitaria ciliaris; assay: Farming soil treatment test; format: in vivo; settings: soil surface spray prior to weed growth, 30 days
Experimental: as §6, §7, §8, §4, §9

[8] = test system: Amaranthus retroflexus; assay: Weed foliar treatment test; format: in vivo; settings: foliar spray, 3 weeks
Experimental: (§10) 3. Weed Foliar Treatment Test
(§11) Soil was filled into a 1/6000 are pot followed by seeding with Digitaria ciliaris, Chenopodium album and Amaranthus retroflexus, covering with soil, and cultivating in a glass greenhouse at an average atmospheric temperature of 25° C.
(§12) Wettable powder of Target Compound (I) shown in Table 1 prepared in compliance with the preparation examples were diluted with water to the prescribed amount of chemical and uniformly sprayed onto the weeds using 15 liters of sprayed water per are when Digitaria ciliaris had grown to the 1.0 to 2.0 leaf stage.
(§13) After treating for 3 weeks in a glass greenhouse at an average atmospheric temperature of 25° C., the herbicidal efficacy thereof was investigated.
as §9

[9] = test system: Chenopodium album; assay: Weed foliar treatment test; format: in vivo; settings: foliar spray, 3 weeks
Experimental: as §10, §11, §12, §13, §9

[10] = test system: Digitaria ciliaris; assay: Weed foliar treatment test; format: in vivo; settings: foliar spray at 1.0 to 2.0 leaf stage of Digitaria ciliaris, 3 weeks
Experimental: as §10, §11, §12, §13, §9

Compound: N#Cc1cnn(-c2nn3c(c2Cl)CCCC3)c1N(CCCl)C(=O)C(F)(F)F [Compound 1, N-(2-chloroethyl)-N-(1-(3-chloro-4,5,6,7-tetrahydropyrazolo[1,5-a]pyridin-2-yl)-4-cyanopyrazol-5-yl)-2,2,2-trifluoroacetamide]
- herbicidal efficacy (growth inhibition rate level) Echinochloa crus-galli ([1]; 1g a.i./10a): 9 (90% to less than 100%)
- herbicidal efficacy (growth inhibition rate level) Echinochloa crus-galli ([1]; 5g a.i./10a): 10 (100%)
- herbicidal efficacy (growth inhibition rate level) Monochoria vaginalis ([2]; 1g a.i./10a): 8 (80% to less than 90%)
- herbicidal efficacy (growth inhibition rate level) Monochoria vaginalis ([2]; 5g a.i./10a): 9 (90% to less than 100%)
- herbicidal efficacy (growth inhibition rate level) Scirpus juncoides ([3]; 1g a.i./10a): 9 (90% to less than 100%)
- herbicidal efficacy (growth inhibition rate level) Scirpus juncoides ([3]; 5g a.i./10a): 10 (100%)
- phytotoxicity (growth inhibition rate level) Rice plants ([4]; 1g a.i./10a): 0 (0 (exponent): 0% to less than 10% (growth inhibition rate))
- phytotoxicity (growth inhibition rate level) Rice plants ([4]; 5g a.i./10a): 1 (10% to less than 20%)
- herbicidal efficacy (growth inhibition rate level) Amaranthus retroflexus ([5]; 5g a.i./10a): 10 (100%)
- herbicidal efficacy (growth inhibition rate level) Amaranthus retroflexus ([5]; 10g a.i./10a): 10 (100%)
- herbicidal efficacy (growth inhibition rate level) Chenopodium album ([6]; 5g a.i./10a): 10 (100%)
- herbicidal efficacy (growth inhibition rate level) Chenopodium album ([6]; 10g a.i./10a): 10 (100%)
- herbicidal efficacy (growth inhibition rate level) Digitaria ciliaris ([7]; 5g a.i./10a): 10 (100%)
- herbicidal efficacy (growth inhibition rate level) Digitaria ciliaris ([7]; 10g a.i./10a): 10 (100%)
- herbicidal efficacy (growth inhibition rate level) Amaranthus retroflexus ([8]; 5g a.i./10a): 10 (100%)
- herbicidal efficacy (growth inhibition rate level) Amaranthus retroflexus ([8]; 10g a.i./10a): 10 (100%)
- herbicidal efficacy (growth inhibition rate level) Chenopodium album ([9]; 5g a.i./10a): 10 (100%)
- herbicidal efficacy (growth inhibition rate level) Chenopodium album ([9]; 10g a.i./10a): 10 (100%)
- herbicidal efficacy (growth inhibition rate level) Digitaria ciliaris ([10]; 5g a.i./10a): 10 (100%)
- herbicidal efficacy (growth inhibition rate level) Digitaria ciliaris ([10]; 10g a.i./10a): 10 (100%)
- melting point: 87 to 89 °C

Compound: N#Cc1cnn(-c2nn3c(c2Cl)CCCC3)c1NC(=O)C(F)(F)F [Control agent 4.185]
- herbicidal efficacy (growth inhibition rate level) Echinochloa crus-galli ([1]; 1g a.i./10a): 2 (20% to less than 30%)
- herbicidal efficacy (growth inhibition rate level) Echinochloa crus-galli ([1]; 5g a.i./10a): 4 (40% to less than 50%)
- herbicidal efficacy (growth inhibition rate level) Monochoria vaginalis ([2]; 1g a.i./10a): 0 (0 (exponent): 0% to less than 10% (growth inhibition rate))
- herbicidal efficacy (growth inhibition rate level) Monochoria vaginalis ([2]; 5g a.i./10a): 0 (0 (exponent): 0% to less than 10% (growth inhibition rate))
- herbicidal efficacy (growth inhibition rate level) Scirpus juncoides ([3]; 1g a.i./10a): 5 (50% to less than 60%)
- herbicidal efficacy (growth inhibition rate level) Scirpus juncoides ([3]; 5g a.i./10a): 6 (60% to less than 70%)
- phytotoxicity (growth inhibition rate level) Rice plants ([4]; 1g a.i./10a): 2 (20% to less than 30%)
- phytotoxicity (growth inhibition rate level) Rice plants ([4]; 5g a.i./10a): 2 (20% to less than 30%)
- herbicidal efficacy (growth inhibition rate level) Amaranthus retroflexus ([5]; 5g a.i./10a): 5 (50% to less than 60%)
- herbicidal efficacy (growth inhibition rate level) Amaranthus retroflexus ([5]; 10g a.i./10a): 6 (60% to less than 70%)
- herbicidal efficacy (growth inhibition rate level) Chenopodium album ([6]; 5g a.i./10a): 4 (40% to less than 50%)
- herbicidal efficacy (growth inhibition rate level) Chenopodium album ([6]; 10g a.i./10a): 5 (50% to less than 60%)
- herbicidal efficacy (growth inhibition rate level) Digitaria ciliaris ([7]; 5g a.i./10a): 3 (30% to less than 40%)
- herbicidal efficacy (growth inhibition rate level) Digitaria ciliaris ([7]; 10g a.i./10a): 5 (50% to less than 60%)
- herbicidal efficacy (growth inhibition rate level) Amaranthus retroflexus ([8]; 5g a.i./10a): 6 (60% to less than 70%)
- herbicidal efficacy (growth inhibition rate level) Amaranthus retroflexus ([8]; 10g a.i./10a): 6 (60% to less than 70%)
- herbicidal efficacy (growth inhibition rate level) Chenopodium album ([9]; 5g a.i./10a): 5 (50% to less than 60%)
- herbicidal efficacy (growth inhibition rate level) Chenopodium album ([9]; 10g a.i./10a): 6 (60% to less than 70%)
- herbicidal efficacy (growth inhibition rate level) Digitaria ciliaris ([10]; 5g a.i./10a): 4 (40% to less than 50%)
- herbicidal efficacy (growth inhibition rate level) Digitaria ciliaris ([10]; 10g a.i./10a): 6 (60% to less than 70%)

Compound: CN(C(=O)C(F)(F)F)c1c(C#N)cnn1-c1nn2c(c1Cl)CCCC2 [Control agent 4.237]
- herbicidal efficacy (growth inhibition rate level) Echinochloa crus-galli ([1]; 1g a.i./10a): 1 (10% to less than 20%)
- herbicidal efficacy (growth inhibition rate level) Echinochloa crus-galli ([1]; 5g a.i./10a): 4 (40% to less than 50%)
- herbicidal efficacy (growth inhibition rate level) Monochoria vaginalis ([2]; 1g a.i./10a): 2 (20% to less than 30%)
- herbicidal efficacy (growth inhibition rate level) Monochoria vaginalis ([2]; 5g a.i./10a): 3 (30% to less than 40%)
- herbicidal efficacy (growth inhibition rate level) Scirpus juncoides ([3]; 1g a.i./10a): 2 (20% to less than 30%)
- herbicidal efficacy (growth inhibition rate level) Scirpus juncoides ([3]; 5g a.i./10a): 4 (40% to less than 50%)
- phytotoxicity (growth inhibition rate level) Rice plants ([4]; 1g a.i./10a): 1 (10% to less than 20%)
- phytotoxicity (growth inhibition rate level) Rice plants ([4]; 5g a.i./10a): 2 (20% to less than 30%)
- herbicidal efficacy (growth inhibition rate level) Amaranthus retroflexus ([5]; 5g a.i./10a): 5 (50% to less than 60%)
- herbicidal efficacy (growth inhibition rate level) Amaranthus retroflexus ([5]; 10g a.i./10a): 5 (50% to less than 60%)
- herbicidal efficacy (growth inhibition rate level) Chenopodium album ([6]; 5g a.i./10a): 4 (40% to less than 50%)
- herbicidal efficacy (growth inhibition rate level) Chenopodium album ([6]; 10g a.i./10a): 4 (40% to less than 50%)
- herbicidal efficacy (growth inhibition rate level) Digitaria ciliaris ([7]; 5g a.i./10a): 4 (40% to less than 50%)
- herbicidal efficacy (growth inhibition rate level) Digitaria ciliaris ([7]; 10g a.i./10a): 5 (50% to less than 60%)
- herbicidal efficacy (growth inhibition rate level) Amaranthus retroflexus ([8]; 5g a.i./10a): 4 (40% to less than 50%)
- herbicidal efficacy (growth inhibition rate level) Amaranthus retroflexus ([8]; 10g a.i./10a): 6 (60% to less than 70%)
- herbicidal efficacy (growth inhibition rate level) Chenopodium album ([9]; 5g a.i./10a): 4 (40% to less than 50%)
- herbicidal efficacy (growth inhibition rate level) Chenopodium album ([9]; 10g a.i./10a): 5 (50% to less than 60%)
- herbicidal efficacy (growth inhibition rate level) Digitaria ciliaris ([10]; 5g a.i./10a): 5 (50% to less than 60%)
- herbicidal efficacy (growth inhibition rate level) Digitaria ciliaris ([10]; 10g a.i./10a): 6 (60% to less than 70%)

Compound: CCN(C(=O)C(F)(F)F)c1c(C#N)cnn1-c1nn2c(c1Cl)CCCC2 [Control agent 4.238]
- herbicidal efficacy (growth inhibition rate level) Echinochloa crus-galli ([1]; 1g a.i./10a): 2 (20% to less than 30%)
- herbicidal efficacy (growth inhibition rate level) Echinochloa crus-galli ([1]; 5g a.i./10a): 4 (40% to less than 50%)
- herbicidal efficacy (growth inhibition rate level) Monochoria vaginalis ([2]; 1g a.i./10a): 0 (0 (exponent): 0% to less than 10% (growth inhibition rate))
- herbicidal efficacy (growth inhibition rate level) Monochoria vaginalis ([2]; 5g a.i./10a): 1 (10% to less than 20%)
- herbicidal efficacy (growth inhibition rate level) Scirpus juncoides ([3]; 1g a.i./10a): 2 (20% to less than 30%)
- herbicidal efficacy (growth inhibition rate level) Scirpus juncoides ([3]; 5g a.i./10a): 3 (30% to less than 40%)
- phytotoxicity (growth inhibition rate level) Rice plants ([4]; 1g a.i./10a): 2 (20% to less than 30%)
- phytotoxicity (growth inhibition rate level) Rice plants ([4]; 5g a.i./10a): 2 (20% to less than 30%)
- herbicidal efficacy (growth inhibition rate level) Amaranthus retroflexus ([5]; 5g a.i./10a): 4 (40% to less than 50%)
- herbicidal efficacy (growth inhibition rate level) Amaranthus retroflexus ([5]; 10g a.i./10a): 5 (50% to less than 60%)
- herbicidal efficacy (growth inhibition rate level) Chenopodium album ([6]; 5g a.i./10a): 4 (40% to less than 50%)
- herbicidal efficacy (growth inhibition rate level) Chenopodium album ([6]; 10g a.i./10a): 5 (50% to less than 60%)
- herbicidal efficacy (growth inhibition rate level) Digitaria ciliaris ([7]; 5g a.i./10a): 5 (50% to less than 60%)
- herbicidal efficacy (growth inhibition rate level) Digitaria ciliaris ([7]; 10g a.i./10a): 6 (60% to less than 70%)
- herbicidal efficacy (growth inhibition rate level) Amaranthus retroflexus ([8]; 5g a.i./10a): 5 (50% to less than 60%)
- herbicidal efficacy (growth inhibition rate level) Amaranthus retroflexus ([8]; 10g a.i./10a): 6 (60% to less than 70%)
- herbicidal efficacy (growth inhibition rate level) Chenopodium album ([9]; 5g a.i./10a): 4 (40% to less than 50%)
- herbicidal efficacy (growth inhibition rate level) Chenopodium album ([9]; 10g a.i./10a): 6 (60% to less than 70%)
- herbicidal efficacy (growth inhibition rate level) Digitaria ciliaris ([10]; 5g a.i./10a): 4 (40% to less than 50%)
- herbicidal efficacy (growth inhibition rate level) Digitaria ciliaris ([10]; 10g a.i./10a): 5 (50% to less than 60%)
